Patent publication US8673919B2, “Dihydropyridin sulfonamides and dihydropyridin sulfamides as MEK inhibitors” (Ardea Biosciences, Inc., priority 2009, dated 2014)

Assays:
A375 cells = assay: A375 Crystal Violet (CV) Proliferation Assay; assay type: cell-based; conditions: A375 human melanoma cells, mutant BRAF V600E, crystal violet staining, 4 days
Description: Cell proliferation for A375 cells [human melanoma cell line, expressing mutant BRAF V600E] was measured by crystal violet (CV) staining: Cultivated human A375 cells were plated out in a density of 1500 cells/measurement point in 200 μl of growth medium (DMEM/HAMS F12 with 10% FBS and 2 mM Glutamine) in a 96-well multititer plate. After 24 hours, the cells from a plate (zero plate) were stained with crystal violet (see below), while the medium in the other plates was replaced by fresh culture medium (200 μl) to which the test substances had been added in various concentrations (0 μM, and in the range 0.3 nM-30 μM; the final concentration of the solvent dimethyl sulphoxide was 0.5%). The cells were incubated in the presence of the test substances for 4 days. The cell proliferation was determined by staining the cells with crystal violet: the cells were fixed by adding 20 μl/measurement point of an 11% glutaraldehyde solution at room temperature for 15 min. After the fixed cells had been washed three times with water, the plates were dried at room temperature. The cells were stained by adding 100 μl/measurement point of a 0.1% crystal violet solution (pH adjusted to pH 3 by adding acetic acid). After the stained cells had been washed three times with water, the plates were dried at room temperature. The dye was dissolved by adding 100 μl/measurement point of a 10% acetic acid solution, and the extinction was determined by photometry at a wavelength of 595 nm. The percentage change in cell growth was calculated by normalizing the measurements to the extinctions of the zero point plate (=0%) and the extinction of the untreated (0 μM) cells (=100%). The IC50 values were determined by means of a 4-parameter fit using the company's own software.

MEK1 = molecular target: T1, MEK1 (Homo sapiens, UniProt Q02750); assay: MEK1 Activation Kinase Assay (HTRF; Cot1 phosphorylation of GST-MEK1); assay type: biochemical; conditions: activation of GST-MEK1 by Cot1, HTRF, 10 min pre-incubation, 20 min reaction at 22° C.
T1 construct: purchased Millipore 14-420
T1 sequence (Q02750 whole entry): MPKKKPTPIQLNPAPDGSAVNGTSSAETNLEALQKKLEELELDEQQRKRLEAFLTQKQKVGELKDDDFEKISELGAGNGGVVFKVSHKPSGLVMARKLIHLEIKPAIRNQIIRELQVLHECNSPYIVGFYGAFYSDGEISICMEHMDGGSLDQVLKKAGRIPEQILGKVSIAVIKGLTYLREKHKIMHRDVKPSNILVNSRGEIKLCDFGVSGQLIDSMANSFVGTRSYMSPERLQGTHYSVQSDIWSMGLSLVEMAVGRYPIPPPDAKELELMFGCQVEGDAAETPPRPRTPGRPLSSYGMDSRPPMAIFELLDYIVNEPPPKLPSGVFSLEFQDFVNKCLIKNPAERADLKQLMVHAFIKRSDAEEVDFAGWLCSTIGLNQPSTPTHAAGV
Excerpt: The kinase Cot1 activates MEK1 by phosphorylating its activation loop. The inhibitory activity of compounds of the present invention on this activation of MEK1 was quantified employing the HTRF assay described in the following paragraphs.
N-terminally His6-tagged recombinant kinase domain of the human Cot1 (amino acids 30-397, purchased from Millipore, cat. no 14-703) expressed in insect cells (SF21) and purified by Ni-NTA affinity chromatography was used as kinase. As substrate for the kinase reaction the unactive C-terminally His6-tagged GST-MEK1 fusion protein (Millipore cat. no 14-420) was used.
For the assay 50 nl of a 100 fold concentrated solution of the test compound in DMSO was pipetted into a black low volume 384 well microtiter plate (Greiner Bio-One, Frickenhausen, Germany), 3 μl of a solution of 24 nM GST-MEK1 and 166.7 μM adenosine-tri-phosphate (ATP) in assay buffer [50 mM Tris/HCl pH 7.5, 10 mM MgCl2, 2 mM dithiothreitol, 0.01% (v/v) Igepal CA 630 (Sigma), 5 mM β-phospho-glycerol] were added and the mixture was incubated for 10 min at 22° C. to allow pre-binding of the test compounds to the GST-MEK1 before the start of the kinase reaction. Then the kinase reaction was started by the addition of 2 μl of a solution of Cot1 in assay buffer and the resulting mixture was incubated for a reaction time of 20 min at 22° C. The concentration of Cot1 in the assay was adjusted depending of the activity of the enzyme lot and was chosen appropriate to have the assay in the linear range, typical enzyme concentrations were in the range of about 2 ng/μl (final conc. in the 5 μl assay volume). The reaction was stopped by the addition of 5 μl of a solution of HTRF detection reagents (13 nM anti GST-XL665 [#61 GSTXLB, Fa. Cis Biointernational, Marcoule, France], 1 nM Eu-cryptate labelled anti-phospho-MEK 1/2 (Ser217/221) [#61P17KAZ, Fa. Cis Biointernational],) in an aqueous EDTA-solution (100 mM EDTA, 500 mM KF, 0.2% (w/v) bovine serum albumin in 100 mM HEPES/NaOH pH 7.5).
The resulting mixture was incubated 2 h at 22° C. to allow the binding of the phosphorylated GST-MEK1 to the anti-GST-XL665 and the Eu-cryptate labelled anti-phospho-MEK 1/2 antibody. Subsequently the amount of Ser217/Ser221-phosphorylated substrate was evaluated by measurement of the resonance is energy transfer from the Eu-Cryptate-labelled anti-phospho-MEK antibody to the anti-GST-XL665. Therefore, the fluorescence emissions at 620 nm and 665 nm after excitation at 350 nm was measured in a HTRF reader, e.g. a Rubystar (BMG Labtechnologies, Offenburg, Germany) or a Viewlux (Perkin-Elmer). The ratio of the emissions at 665 nm and at […] was taken as the measure for the amount of phosphorylated substrate. The data were normalised (enzyme reaction without inhibitor=0% inhibition, all other assay components but no enzyme=100% inhibition).

A549 cells = assay: A549 Cell Titer Glo (CTG) Proliferation Assay; assay type: cell-based; conditions: A549 human non small cell lung cancer cells, mutant K-Ras G12S
Description: (§1) HCT116 cells [human colorectal cell line, expressing […]] were plated at a density of 3000 cells/well in 96 well black-clear bottom tissue culture plates (Costar 3603 black/clear bottom) in 100 μl/well DMEM medium (DMEM/Ham's F12) with 10% Fetal Bovine Serum (FBS) and stable Glutamine incubated at 37° C. Sister wells were plated in separate plate for time zero determination. All plates were incubated overnight at 37° C. Take down time zero plate: 100 μl/well CTG solution (Promega Cell Titer Glo solution) were added to time zero wells in sister plate; the plates were mixed for 2 min on orbital shaker to ensure cell lysis, incubated for 10 minutes, luminescence was read on VICTOR3 (Perkin Elmer). Twenty-four hours after cell seeding, test compounds were diluted in 50 μl medium and were added at a final concentration range from as high 10 μM to as low […] depending on the activities of the tested compounds in serial dilutions at a final DMSO concentration of 0.4%. Cells were incubated for 72 hours at 37° C. after addition of the test compound. Then, using a Promega Cell Titer Glo Luminescent® assay kit, 100 μl microliter lysis buffer containing of the enzyme luciferase and its substrate, luciferin mixture, were added to each well and incubated for 10 min at room temperature in the dark to stabilize luminescence signal. The samples were read on VICTOR3 (Perkin Elmer) using Luminescence protocol. The percentage change in cell growth was calculated by normalizing the measurements to the extinctions of the zero point plate (=0%) and the extinction of the untreated (0 μM) cells (=100%). The IC50 values were determined by means of a 4-parameter fit using the company's own software.
A549 cells [human non small cell lung cancer cell line, expressing mutant K-Ras G12S] were seeded at a density of 2000 cells/well in 96 well black-clear bottom tissue culture plates (Costar 3603 black/clear bottom) in 100 μl/well DMEM medium (DMEM/Ham's F12) with 10% Fetal Bovine Serum (FBS) and stable Glutamine incubated at 37° C. Cell Titer Glo proliferation assays for A549 cells were performed with the same protocol as described afore for HCT116 cells.

HCT116 cells = assay: HCT116 Cell Titer Glo (CTG) Proliferation Assay; assay type: cell-based; conditions: HCT116 human colorectal cells
Description: as §1

| SMILES | IC50 (A375 cells; Homo sapiens, A-375, 96 h) [nM] | IC50 (MEK1) [nM] | IC50 (A549 cells; Homo sapiens, A549, 72 h) [nM] | IC50 (HCT116 cells; Homo sapiens, HCT-116, 72 h) [nM] | IC50 (A375 cells) [nM] | IC50 (A549 cells; 72 hours) [nM] | IC50 (HCT116 cells; 72 hours) [nM] |
| --- | --- | --- | --- | --- | --- | --- | --- |
| Cc1cc(NS(=O)(=O)C2(CC(O)CO)CC2)c(Nc2ccc(I)cc2F)n(C)c1=O (racemic) [Example 2, 1-(2,3-dihydroxypropyl)-N-(2-(2-fluoro-4-iodophenylamino)-1,5-dimethyl-6-oxo-1,6-dihydropyridin-3-yl)cyclopropane-1-sulfonamide] | 17 | 11.5 |  |  |  |  |  |
| Cn1c(Nc2ccc(I)cc2F)c(NS(=O)(=O)C2(CC(O)CO)CC2)cc(F)c1=O (racemic) [Example 9, 1-(2,3-dihydroxypropyl)-N-{5-fluoro-2-[(2-fluoro-4-iodophenyl)amino]-1-methyl-6-oxo-1,6-dihydropyridin-3-yl}cyclopropanesulfonamide] | 25.5 | 21.1 | 700 | 300 |  |  |  |
| Cn1c(Nc2ccc(I)cc2F)c(NS(=O)(=O)C2(CC(O)CO)CC2)ccc1=O (single isomer, unassigned) [Example 6A, 1-(2,3-dihydroxypropyl)-N-{2-[(2-fluoro-4-iodophenyl)amino]-1-methyl-6-oxo-1,6-dihydropyridin-3-yl}cyclopropanesulfonamide] |  | 10.4 |  |  | 17.8 | 481 | 119 |
| Cn1c(Nc2ccc(I)cc2F)c(NS(=O)(=O)C2(CC(O)CO)CC2)ccc1=O (single isomer, unassigned) [Example 6B, 1-(2,3-dihydroxypropyl)-N-{2-[(2-fluoro-4-iodophenyl)amino]-1-methyl-6-oxo-1,6-dihydropyridin-3-yl}cyclopropanesulfonamide] |  | 16.6 |  |  | 7.74 | 203 | 54.5 |
| Cc1cc(NS(=O)(=O)C2CC2)c(Nc2ccc(I)cc2F)n(C)c1=O [Example 1, N-(2-(2-fluoro-4-iodophenylamino)-1,5-dimethyl-6-oxo-1,6-dihydropyridin-3-yl) cyclopropanesulfonamide] |  | 12.1 |  |  |  |  |  |
| Cc1cc(NS(=O)(=O)C2(CCO)CC2)c(Nc2ccc(I)cc2F)n(C)c1=O [Example 3, N-(2-(2-fluoro-4-iodophenylamino)-1,5-dimethyl-6-oxo-1,6-dihydropyridin-3-yl)-1-(2-hydroxyethyl)cyclopropane-1-sulfonamide] | 15 | 8.97 |  |  |  |  |  |
| Cn1c(Nc2ccc(I)cc2F)c(NS(=O)(=O)C2CC2)ccc1=O [Example 5, N-{2-[(2-fluoro-4-iodophenyl)amino]-1-methyl-6-oxo-1,6-dihydropyridin-3-yl}cyclopropanesulfonamide] | 2.94 | 9.9 | 206 | 90.1 |  |  |  |
| Cn1c(Nc2ccc(I)cc2F)c(NS(=O)(=O)C2(CCO)CC2)ccc1=O [Example 7, N-{2-[(2-fluoro-4-iodophenyl)amino]-1-methyl-6-oxo-1,6-dihydropyridin-3-yl}-1-(2-hydroxyethyl)cyclopropanesulfonamide] | 4.7 | 8.36 | 254 | 117 |  |  |  |
| Cn1c(Nc2ccc(I)cc2F)c(NS(=O)(=O)C2CC2)cc(F)c1=O [Example 8, N-{5-fluoro-2-[(2-fluoro-4-iodophenyl)amino]-1-methyl-6-oxo-1,6-dihydropyridin-3-yl}cyclopropanesulfonamide] | 26.6 | 15.3 | 930 | 590 |  |  |  |
| Cn1c(Nc2ccc(I)cc2F)c(NS(=O)(=O)C2(CCO)CC2)cc(F)c1=O [Example 10, N-{5-fluoro-2-[(2-fluoro-4-iodophenyl)amino]-1-methyl-6-oxo-1,6-dihydropyridin-3-yl}-1-(2-hydroxyethyl)cyclopropanesulfonamide] | 22.9 | 38.2 | 730 | 360 |  |  |  |
